In patent US20250388589A1, “TRICYCLIC HETEROCYCLIC DERIVATIVES, COMPOSITIONS AND USES THEREOF” (Danatlas Pharmaceuticals Co., Ltd., priority 2022, published 2025):
pIC50: −log10 of the molar value.

Tests used:
[1] = target: hPARG (C-terminal His6-tag) (Homo sapiens (Human), UniProt Q86W56); assay: PARG Enzymatic Activity Assay (HTRF); format: biochemical; settings: hPARG 65 pM final, biotinylated-NAD ribosylated PARP1 8 nM final
In short: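 E. coli-expressed enzyme (65 pM final) preincubated 60 min RT with compounds (10-point 4-fold dilution, duplicate) in 50 mM Tris pH 7.4, 3 mM EDTA, 1 mM DTT, 50 mM KCl, 0.01% Tween 20. Biotinylated-NAD ribosylated PARP1 substrate (8 nM final) reacted 10 min RT; Eu-streptavidin/anti-6HIS-XL665 HTRF read 665/620 nm after 60 min. IC50 from 4-parameter Hill fit.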

Kuramochi cell line = assay: Cell Viability Assay (Cell Titer-Glo, 7 days); format: cell-based; settings: 168 h, Kuramochi cells, 7 days incubation, read-out: PARG Cell viability (IC50)
In short: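 Kuramochi cells in RPMI with 10% FBS, seeded at 400 cells/well, were treated with a 9-point 3-fold dilution series in duplicate for 7 days at 37 °C, 5% CO2. Viability by CellTiter-Glo luminescence, normalised to DMSO and medium-only controls; IC50 from 4-parameter Hill fit.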

hPARG (C-terminal His6-tag), sequence (Q86W56 whole entry): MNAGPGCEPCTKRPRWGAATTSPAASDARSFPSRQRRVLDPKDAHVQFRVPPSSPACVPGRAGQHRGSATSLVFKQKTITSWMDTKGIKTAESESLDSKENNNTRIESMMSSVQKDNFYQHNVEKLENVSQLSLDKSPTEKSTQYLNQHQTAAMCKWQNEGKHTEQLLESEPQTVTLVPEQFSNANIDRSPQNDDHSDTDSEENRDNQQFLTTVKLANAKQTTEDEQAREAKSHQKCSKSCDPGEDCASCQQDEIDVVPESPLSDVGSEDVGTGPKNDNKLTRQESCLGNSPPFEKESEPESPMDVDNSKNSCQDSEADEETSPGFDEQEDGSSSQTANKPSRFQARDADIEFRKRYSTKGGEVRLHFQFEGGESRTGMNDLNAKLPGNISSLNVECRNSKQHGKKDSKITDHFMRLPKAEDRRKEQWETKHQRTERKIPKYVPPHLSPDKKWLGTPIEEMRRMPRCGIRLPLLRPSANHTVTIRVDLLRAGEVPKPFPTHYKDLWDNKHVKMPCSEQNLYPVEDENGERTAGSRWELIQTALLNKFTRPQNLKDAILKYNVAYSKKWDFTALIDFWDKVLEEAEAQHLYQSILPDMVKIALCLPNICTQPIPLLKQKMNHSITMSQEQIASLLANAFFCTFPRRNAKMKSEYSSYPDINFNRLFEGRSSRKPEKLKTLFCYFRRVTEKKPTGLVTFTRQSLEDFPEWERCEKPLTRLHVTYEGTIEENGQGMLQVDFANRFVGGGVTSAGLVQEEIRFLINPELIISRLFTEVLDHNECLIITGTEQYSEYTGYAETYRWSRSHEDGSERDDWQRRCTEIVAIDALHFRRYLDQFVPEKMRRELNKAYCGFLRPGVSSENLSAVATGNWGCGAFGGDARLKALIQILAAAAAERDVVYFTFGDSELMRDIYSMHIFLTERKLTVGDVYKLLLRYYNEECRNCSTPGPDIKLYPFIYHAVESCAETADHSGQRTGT

| Compound | pIC50 [1] | pIC50 (Kuramochi cell line) |
| --- | --- | --- |
| N#CC1CCN(c2ncnc3c2c2ccc(S(=O)(=O)NC4(C#N)CC4)cc2n3-c2nnc(C(F)F)s2)CC1 [Example 49, N-(1-Cyanocyclopropyl)-4-(4-cyanopiperidin-1-yl)-9-(5-(difluoromethyl)-1,3,4-thiadiazol-2-yl)-9H-pyrimido[4,5-b]indole-7-sulfonamide] | > 7.00 | > 7.00 |
| C[C@H]1CN(c2ncnc3c2c2ccc(S(=O)(=O)NC4(C#N)CC4)cc2n3-c2nnc(C(F)F)s2)CCO1 [Example 50, (S)-N-(1-Cyanocyclopropyl)-9-(5-(difluoromethyl)-1,3,4-thiadiazol-2-yl)-4-(2-methylmorpholino)-9H-pyrimido[4,5-b]indole-7-sulfonamide] | > 7.00 | > 7.00 |
| N#CC1(NS(=O)(=O)c2ccc3c4c(N5CCC(F)CC5)ncnc4n(-c4nnc(C(F)F)s4)c3c2)CC1 [Example 51, N-(1-Cyanocyclopropyl)-9-(5-(difluoromethyl)-1,3,4-thiadiazol-2-yl)-4-(4-fluoropiperidin-1-yl)-9H-pyrimido[4,5-b]indole-7-sulfonamide] | > 7.00 | 6.00 to 7.00 |
| N#CC1(NS(=O)(=O)c2ccc3c4c(N5CCC(F)(F)CC5)ncnc4n(-c4nnc(C(F)F)s4)c3c2)CC1 [Example 52, N-(1-Cyanocyclopropyl)-9-(5-(difluoromethyl)-1,3,4-thiadiazol-2-yl)-4-(4,4-difluoropiperidin-1-yl)-9H-pyrimido[4,5-b]indole-7-sulfonamide] | 6.00 to 7.00 | 6.00 to 7.00 |
| N#CC1(NS(=O)(=O)c2ccc3c4c(N5CC[C@@H](O)C5)ncnc4n(-c4nnc(C(F)F)s4)c3c2)CC1 [Example 54, (R)-N-(1-Cyanocyclopropyl)-9-(5-(difluoromethyl)-1,3,4-thiadiazol-2-yl)-4-(3-hydroxypyrrolidin-1-yl)-9H-pyrimido[4,5-b]indole-7-sulfonamide] | 6.00 to 7.00 | 6.00 to 7.00 |
| N#CC1(NS(=O)(=O)c2cc3c(cc2F)c2c(N4CCC(O)CC4)ncnc2n3-c2nnc(C(F)F)s2)CC1 [Example 55, N-(1-Cyanocyclopropyl)-9-(5-(difluoromethyl)-1,3,4-thiadiazol-2-yl)-6-fluoro-4-(4-hydroxypiperidin-1-yl)-9H-pyrimido[4,5-b]indole-7-sulfonamide] | > 7.00 | > 7.00 |
| CN1CCN(c2ncnc3c2c2ccc(S(=O)(=O)NC4(C#N)CC4)cc2n3-c2nnc(C(F)F)s2)CC1 [Example 56, N-(1-Cyanocyclopropyl)-9-(5-(difluoromethyl)-1,3,4-thiadiazol-2-yl)-4-(4-methylpiperazin-1-yl)-9H-pyrimido[4,5-b]indole-7-sulfonamide] | > 7.00 | > 7.00 |
| CC(C)C(=O)N1C[C@H](C)N(c2ncnc3c2c2ccc(S(=O)(=O)NC4(C#N)CC4)cc2n3-c2nnc(C(F)F)s2)C[C@@H]1C [Example 57, N-(1-cyanocyclopropyl)-9-(5-(difluoromethyl)-1,3,4-thiadiazol-2-yl)-4-((2S,5S)-4-isobutyryl-2,5-dimethylpiperazin-1-yl)-9H-pyrimido[4,5-b]indole-7-sulfonamide] | 6.00 to 7.00 | 6.00 to 7.00 |
| C[C@@H]1CN(c2ncnc3c2c2ccc(S(=O)(=O)NC4(C#N)CC4)cc2n3-c2nnc(C(F)F)s2)C[C@H](C)N1C(=O)C1COC1 [Example 58, N-(1-Cyanocyclopropyl)-9-(5-(difluoromethyl)-1,3,4-thiadiazol-2-yl)-4-((3S,5R)-3,5-dimethyl-4-(oxetane-3-carbonyl)piperazin-1-yl)-9H-pyrimido[4,5-b]indole-7-sulfonamide] | > 7.00 | > 7.00 |
| C[C@@H]1CN(C(=O)N(C)C)[C@@H](C)CN1c1ncnc2c1c1ccc(S(=O)(=O)NC3(C#N)CC3)cc1n2-c1nnc(C(F)F)s1 [Example 59, (2S,5R)-4-(7-(N-(1-Cyanocyclopropyl)sulfamoyl)-9-(5-(difluoromethyl)-1,3,4-thiadiazol-2-yl)-9H-pyrimido[4,5-b]indol-4-yl)-N,N,2,5-tetramethylpiperazine-1-carboxamide] | > 7.00 | > 7.00 |
| CC(C)C(=O)N1CCN(c2ncnc3c2c2ccc(S(=O)(=O)NC4(C#N)CC4)cc2n3-c2nnc(C(F)F)s2)C[C@H]1C [Example 60, (R)-N-(1-cyanocyclopropyl)-9-(5-(difluoromethyl)-1,3,4-thiadiazol-2-yl)-4-(4-isobutyryl-3-methylpiperazin-1-yl)-9H-pyrimido[4,5-b]indole-7-sulfonamide] | 6.00 to 7.00 | 6.00 to 7.00 |
| CC(C)C(=O)N1CCN(c2ncnc3c2c2ccc(S(=O)(=O)NC4(C#N)CC4)cc2n3-c2nnc(C(F)F)s2)C[C@@H]1C [Example 61, (S)-N-(1-cyanocyclopropyl)-9-(5-(difluoromethyl)-1,3,4-thiadiazol-2-yl)-4-(4-isobutyryl-3-methylpiperazin-1-yl)-9H-pyrimido[4,5-b]indole-7-sulfonamide] | > 7.00 | > 7.00 |
| CC(C)C(=O)N1[C@H](C)CN(c2ncnc3c2c2ccc(S(=O)(=O)NC4(C#N)CC4)cc2n3-c2nnc(C(F)F)s2)C[C@@H]1C [Example 62, N-(1-Cyanocyclopropyl)-9-(5-(difluoromethyl)-1,3,4-thiadiazol-2-yl)-4-((3S,5R)-4-isobutyryl-3,5-dimethylpiperazin-1-yl)-9H-pyrimido[4,5-b]indole-7-sulfonamide] | > 7.00 | > 7.00 |
| N#CC1(NS(=O)(=O)c2ccc3c4c(N5CCN(C(=O)N6CCC6)CC5)ncnc4n(-c4nnc(C(F)F)s4)c3c2)CC1 [Example 63, 4-(4-(Azetidine-1-carbonyl)piperazin-1-yl)-N-(1-cyanocyclopropyl)-9-(5-(difluoromethyl)-1,3,4-thiadiazol-2-yl)-9H-pyrimido[4,5-b]indole-7-sulfonamide] | > 7.00 | > 7.00 |
| CC(C)C(=O)N1C[C@@H](C)N(c2ncnc3c2c2ccc(S(=O)(=O)NC4(C)CC4)cc2n3-c2nnc(C(F)F)s2)C[C@@H]1C [Example 64, 9-(5-(Difluoromethyl)-1,3,4-thiadiazol-2-yl)-4-((2R,5S)-4-isobutyryl-2,5-dimethylpiperazin-1-yl)-N-(1-methylcyclopropyl)-9H-pyrimido[4,5-b]indole-7-sulfonamide] | > 7.00 | > 7.00 |
| CN1CC(C(=O)N2CCN(c3ncnc4c3c3ccc(S(=O)(=O)NC5(C#N)CC5)cc3n4-c3nnc(C(F)F)s3)CC2)C1 [Example 65, N-(1-Cyanocyclopropyl)-9-(5-(difluoromethyl)-1,3,4-thiadiazol-2-yl)-4-(4-(1-methylazetidine-3-carbonyl)piperazin-1-yl)-9H-pyrimido [4,5-b]indole-7-sulfonamide] | > 7.00 | 6.00 to 7.00 |
| N#CC1(NS(=O)(=O)c2ccc3c4c(N5CCN(C(=O)C6COC6)CC5)ncnc4n(-c4nnc(C(F)F)s4)c3c2)CC1 [Example 66, N-(1-Cyanocyclopropyl)-9-(5-(difluoromethyl)-1,3,4-thiadiazol-2-yl)-4-(4-(oxetane-3-carbonyl)piperazin-1-yl)-9H-pyrimido[4,5-b]indole-7-sulfonamide] | > 7.00 | > 7.00 |
| CN1CCC(C(=O)N2CCN(c3ncnc4c3c3ccc(S(=O)(=O)NC5(C#N)CC5)cc3n4-c3nnc(C(F)F)s3)CC2)C1 (stereo not shown) [Example 67, N-(1-Cyanocyclopropyl)-9-(5-(difluoromethyl)-1,3,4-thiadiazol-2-yl)-4-(4-(1-methylpyrrolidine-3-carbonyl)piperazin-1-yl)-9H-pyrimido[4,5-b]indole-7-sulfonamide] | > 7.00 | 6.00 to 7.00 |
| N#CC1(NS(=O)(=O)c2ccc3c4c(N5CCN(C(=O)C6(F)CCC6)CC5)ncnc4n(-c4nnc(C(F)F)s4)c3c2)CC1 [Example 68, N-(1-Cyanocyclopropyl)-9-(5-(difluoromethyl)-1,3,4-thiadiazol-2-yl)-4-(4-(1-fluorocyclobutane-1-carbonyl)piperazin-1-yl)-9H-pyrimido[4,5-b]indole-7-sulfonamide] | > 7.00 | 6.00 to 7.00 |
| CC(C)[S+]([O-])N1CCN(c2ncnc3c2c2ccc(S(=O)(=O)NC4(C#N)CC4)cc2n3-c2nnc(C(F)F)s2)CC1 (stereo not shown) [Example 69, N-(1-Cyanocyclopropyl)-9-(5-(difluoromethyl)-1,3,4-thiadiazol-2-yl)-4-(4-(isopropylsulfinyl)piperazin-1-yl)-9H-pyrimido[4,5-b]indole-7-sulfonamide] | > 7.00 | > 7.00 |
| CC(C)(C)[S+]([O-])N1CCN(c2ncnc3c2c2ccc(S(=O)(=O)NC4(C#N)CC4)cc2n3-c2nnc(C(F)F)s2)CC1 (stereo not shown) [Example 70, 4-(4-(Tert-butylsulfinyl)piperazin-1-yl)-N-(1-cyanocyclopropyl)-9-(5-(difluoromethyl)-1,3,4-thiadiazol-2-yl)-9H-pyrimido[4,5-b]indole-7-sulfonamide] | > 7.00 | > 7.00 |
| N#CC1(NS(=O)(=O)c2ccc3c4c(N5CC6CN(C(=O)C7COC7)CC6C5)ncnc4n(-c4nnc(C(F)F)s4)c3c2)CC1 (stereo not shown) [Example 71, N-(1-Cyanocyclopropyl)-9-(5-(difluoromethyl)-1,3,4-thiadiazol-2-yl)-4-(5-(oxetane-3-carbonyl)hexahydropyrrolo[3,4-c]pyrrol-2(1H)-yl)-9H-pyrimido[4,5-b]indole-7-sulfonamide] | > 7.00 | 6.00 to 7.00 |
| C[C@H]1CN(C(=O)N(C)C)CCN1c1ncnc2c1c1ccc(S(=O)(=O)NC3(C#N)CC3)cc1n2-c1nnc(C(F)F)s1 [Example 72, (S)-4-(7-(N-(1-Cyanocyclopropyl)sulfamoyl)-9-(5-(difluoromethyl)-1,3,4-thiadiazol-2-yl)-9H-pyrimido[4,5-b]indol-4-yl)-N,N,3-trimethylpiperazine-1-carboxamide] | 6.00 to 7.00 | 6.00 to 7.00 |
